This note sets out measurements from US9745348B2 (The University of Manchester, priority 2011, dated 2017).

For data set [1], the system named is NIH 3T3 cells co-cultured with B. subtilis 168 or HL60 cancer cells. Briefly: Co-culture selectivity, distribution of FITC-labeled peptide by fluorescence microscopy. The class given is cell-based. Conditions: 20 μM, 1 hour incubation. The protocol: To further verify the selective cytotoxicity of G(IIKK)3I-NH2 (SEQ ID NO: 3) in vitro, we added the FITC-labeled G(IIKK)3I-NH2 (SEQ ID NO: 3) to the two co-culture systems containing mammalian cell line NIH 3T3 (model host) and bacteria B. subtilis 168 or cancer cell line (HL 60). Specifically, NIH 3T3 cells were cultured at 37° C. with 5% CO2 in IMDM supplemented with 10% FBS. After reaching an over 80% confluence, the cells were transferred into a 6-well plate containing sterile coverslips at bottom to a final concentration of 1×10^5 cells/well. After overnight culture at 37° C., the medium was replaced with 1 ml B. subtilis 168 suspended in PBS with a density of 1×10^6 CFU/ml or 1 ml HL 60 cells suspended in PBS with a density of 1×10^5 cells/ml. Meanwhile, FITC-labeled G(IIKK)3I-NH2 (SEQ ID NO: 3) dissolved in the same buffer was also added to each well to the final concentration of 20 μM. […]
To further confirm the selective responses and cytotoxicity of the peptides, FITC-labeled G(IIKK)3I-NH2 (SEQ ID NO: 3) was synthesized according to the method described previously by Jullian M, et al (Julian et al 2009). […] After incubation for 1 hour, the distribution of FITC-G(IIKK)3I-NH2 (SEQ ID NO: 3) was observed using fluorescence microscopy and the results are shown in FIG. 12. […]

Data set [2] relates to human red blood cells (hRBCs). Nature of the data set: Hemolytic activity, hemoglobin release. The class given is cell-based. Conditions: up to 250 μM, 1 h at 37° C. The procedure: Peptide hemolytic activities were measured by determining hemoglobin release by 4% (v/v) suspensions of fresh human erythrocytes at 540 nm. Fresh human red blood cells (hRBCs) from volunteers were centrifuged and washed three times with PBS (pH7.4). 100 μL of hRBCs suspended in PBS at 8% (v/v) were mixed with 100 µL of different series of 2-fold diluted peptides in a sterile 96-well plate. The plates were incubated for 1 h at 37° C., and centrifuged at 1000 g for 5 min. 100 μL aliquots of the supernatant were transferred to new 96-well plates, and hemoglobin release monitored by measuring supernatant absorbance at 540 nm with a microplate ELISA Reader. As negative and positive controls, hRBCs in PBS and 0.1% Triton X-100 were employed. The hemolysis percentage was calculated using the follow equation: % hemolysis=[(Abs540 nm with peptide−Abs540 nm in PBS)/[(Abs540 nm with 0.1% Triton X-100−Abs540 nm in PBS)×100 Observing Bacterial Membrane Lysis by Fluorescence Microscopy

Data set [3] concerns cytokine genes IL2 and IL8 of human lymphocytes. The settings on record: 10 μM, 1 h.
Protocol: RT-PCR (Reverse Transcription Polymerase Chain Reaction and Real Time Polymerase Chain Reaction): To determine the related gene transcriptional activities about HeLa cell apoptosis and the lymphocyte immunological effects, RT-PCR assays were performed. […] Total RNA from the cells was extracted by Trizol following the manufacturer's instructions (Invitrogen, Britain). Total RNA (1 μg) was subject to cDNA synthesis with random primers (PrimeScript Reverse Transcriptase, Takara, Japan). Real-Time PCR was performed with power SYBR green PCR Master Mix kit (Applied Biosystems, American) using a 7500 real-time PCR system (Applied Biosystems, American) according to the protocol of the manufacturer, and the data were analyzed by relative quantitation of the 2^−ΔΔCt method. Transcriptional levels of related genes were normalized to the values of the house keeping gene β-actin.
For data set [4], the system named is HeLa and HL60 cancer cell lines. The settings on record: 24 h.
Protocol: Antitumor activities of peptides were measured using the 3-(4,5-dimethylthiazol-2-yl)-2,-diphenyl tetrazolium bromide (MTT) assay, and the IC50 value was calculated as the concentration of peptide that induced 50% growth inhibition compared to the untreated control.
HeLa and HL60 cells were seeded in 96-well plates (10^5 cells/well) in a complete medium [Iscove's modified dulbecco's medium (IMDM)] with 10% fetal bovine serum (FBS) for 24 h before peptide treatment. […] Following incubation with peptides, 20 μL of a 5 mg/ml solution MTT reagent was added to each well and incubated for 4 h at 37° C. After removing the supernatant, 150 μL of dimethyl sulfoxide (DMSO) was added to dissolve the formazan crystals that remained in the wells. The absorbance was determined using a microplate ELISA Reader at 570 nm. Wells without cells for blanking the spectrophotometer and the cells without peptides were taken as negative controls.
Data set [5] deals with E. coli DH5α and B. subtilis 168. The class given is cell-based, Escherichia coli; Bacillus subtilis. The settings on record: 1 h. The procedure:
To determine antibacterial activity of peptides, survival rate curves were constructed. Bacteria (E. coli DH5α or B. subtilis 168) were incubated with peptide at varying peptide concentrations at 37° C. for 1 h. Aliquots of 2 μL were withdrawn, diluted and spread on agar plates. After overnight incubation at 37° C., the surviving bacteria were expressed as the percentage of total cells, and survival curves drawn (FIG. 4). Controls were bacteria without peptide. The minimal inhibitory concentrations (MICs) of each peptide were measured by standard microdilution method. The test was done in sterile 96-well plates in a final volume of 200 μL. Aliquots (100 μL) of a bacterial suspension at 1×10^5 (colony-forming units (CFU)/ml) in culture medium were added to […] peptide solution (2-fold serial dilutions in 10 mM PBS buffer). […] The MIC was defined as the lowest concentration of peptide for which there was no visible growth. Each determination was performed at least three times.

Data set [6] is described as follows: MTT viability of fibroblasts over three days. It counts as cell-based, human. Conditions: human, adult fibroblasts (HDFa cells). The procedure: (§1) MTT assay: Cell viability and proliferation is widely assessed by the MTT assay as already described previously.
The fibroblasts cells, Neonatal (HDFn) and Adult (HDFa), were both grown until greater than 80% confluent. […] After 24 hour incubation the culture medium was replaced with fresh medium containing an appropriate amount of the peptide for investigation.
The viability of the fibroblasts, Adult (HDFa) and Neonatal (HDFn) cells in the presence of surfactants was tested by MTT assay over three days relative to control wells containing cells only.

A further data set is described as follows: in vitro. It counts as cell-based. The settings on record: human, neonatal fibroblasts (HDFn cells). The procedure: as §1
The fibroblasts cells, Neonatal (HDFn) and Adult (HDFa), were both grown until greater than 80% confluent. The cells were then harvested and seeded into micro well plate at cell densities of 5000 cells/well in a volume […] of medium. After 24 hour incubation the culture medium was replaced with fresh medium containing an appropriate amount of the peptide for investigation.

Where no end group is shown, it is not given here. The star is where a group is joined. FITC = O=C1OC2(c3ccc(O)cc3Oc3cc(O)ccc32)c2ccc(NC(=S)*)cc21; Ahx = NCCCCCC(=O)O

As for “FITC-G(IIKK)3I-NH2: N-terminal FITC-labeled G(IIKK)3I-NH2 with 6-aminohexanoic acid (Ahx) between the last amino acid and the thiourea linkage ({FITC-Ahx}-GIIKKIIKKIIKKI-NH2; SMILES CC[C@H](C)[C@H](NC(=O)[C@H](CCCCN)NC(=O)[C@H](CCCCN)NC(=O)[C@@H](NC(=O)[C@@H](NC(=O)[C@H](CCCCN)NC(=O)[C@H](CCCCN)NC(=O)[C@@H](NC(=O)[C@@H](NC(=O)[C@H](CCCCN)NC(=O)[C@H](CCCCN)NC(=O)[C@@H](NC(=O)[C@@H](NC(=O)CNC(=O)CCCCCNC(=S)Nc1ccc2c(c1)C(=O)OC21c2ccc(O)cc2Oc2cc(O)ccc21)[C@@H](C)CC)[C@@H](C)CC)[C@@H](C)CC)[C@@H](C)CC)[C@@H](C)CC)[C@@H](C)CC)C(N)=O)”, in data set [1], the “distribution of green fluorescence of FITC-labeled peptide in co-culture” value is “concentrated in the bacterial clusters or the HL60 cells but not in any part of the 3T3 cells”.
Consider GIIKKI-NH2 [G(IIKK)I-NH2], for which the hemolytic activity entry in data set [2] was “inactive”.
As to “GIIKKIIKKIIKKI-NH2 [Helix G3, G(IIKK)3 I-NH2]”, the “relative transcriptional levels of IL2 and IL8 of lymphocytes” value in data set [3] is reported as “lower or almost equal to that of control cells”. Also, the IC50 in data set [4] lay within 4 to 25 µM. Besides, the “MICs (minimum inhibitory concentrations)” value in data set [5] lay in the range of 0.5 to 8 µM. In data set [6], this substance had a viability at 24 h, 5 µM of 91%; a viability at 24 h, 25 µM of 88%; a viability at 24 h, 50 µM of 87%; a viability at 24 h, 100 µM of 78%. In data set [6], this substance displayed a viability at 48 h, 5 µM of 92%; a viability at 48 h, 25 µM of 85%; a viability at 48 h, 50 µM of 84%; a viability at 48 h, 100 µM of 75%. In data set [6], the viability at 72 h, 5 µM is 81%; the viability at 72 h, 25 µM worked out at 80%; the viability at 72 h, 50 µM amounted to 75%; the viability at 72 h, 100 µM was determined as 71%.
In the case of “GIIKKIIKKIIKKIIKKI-NH2 [Helix G4, G(IIKK)4 I-NH2]”, in the data set “in vitro”, the viability at 24 h, 5 µM was found to be 95%; the viability at 24 h, 25 µM came out at 85%; the viability at 24 h, 50 µM came to 81%; the viability at 24 h, 100 µM was determined as 73%. Further, in the data set “in vitro”, the viability at 48 h, 5 µM is 92%; the viability at 48 h, 25 µM turned out to be 77%; the viability at 48 h, 50 µM was 71%; the viability at 48 h, 100 µM stood at 65%. Also, in “in vitro”, the viability at 72 h, 5 µM was determined as 79%; the viability at 72 h, 25 µM was 74%; the viability at 72 h, 50 µM is 65%; the viability at 72 h, 100 µM was found to be 53%. This substance also yielded an IC50 in data set [4] of 4 to 25 µM. In data set [5], the “MICs (minimum inhibitory concentrations)” value is 0.5 to 8 µM. For the same substance, in data set [6], the viability at 24 h, 5 µM stood at 90%; the viability at 24 h, 25 µM worked out at 87%; the viability at 24 h, 50 µM amounted to 85%; the viability at 24 h, 100 µM amounted to 81%. In data set [6], this substance yielded a viability at 48 h, 5 µM of 84%; a viability at 48 h, 25 µM of 81%; a viability at 48 h, 50 µM of 78%; a viability at 48 h, 100 µM of 70%. Besides, in data set [6], the viability at 72 h, 5 µM was 81%; the viability at 72 h, 25 µM stood at 78%; the viability at 72 h, 50 µM was determined as 65%; the viability at 72 h, 100 µM was 55%.
